# Literature values in patent US20080153738A1, “COMPOSITIONS AND METHODS FOR TREATMENT OF HYPERPLASIA” (priority 1997, published 2008).
# System: in-stent restenosis in porcine coronary arteries
smiles,measurement,setting,value
"CC(=O)O[C@H]1C(=O)[C@@]2(C)[C@H]([C@H](OC(=O)c3ccccc3)[C@]3(O)C[C@H](OC(=O)[C@H](O)[C@@H](NC(=O)c4ccccc4)c4ccccc4)C(C)=C1C3(C)C)[C@]1(OC(C)=O)CO[C@@H]1C[C@@H]2O [paclitaxel, Paclitaxel]",neointimal area,90 μg paclitaxel stents,significant reduction in neointimal area
same,Lumen area,"15 and 90 μg paclitaxel stents, directly applied without polymer",Lumen area was increased
same,local cytotoxic effects,stents coated with 90 μg of paclitaxel,significant local cytotoxic effects were observed
same,diameter stenosis and neointimal area,"stents coated with biodegradable polymer, slow-release paclitaxel 175-200 μg/stent, 4 weeks",reduction in diameter stenosis and neointimal area
